This passage reports IC50 results from patent US6972296B2, “Carboxylic acid derivatives that inhibit the binding of integrins to their receptors” (Encysive Pharmaceuticals Inc., priority 1999, dated 2005).

A value given as a limit tells only on which side of the number the result lay.

In this assay the target is T1, α4β1 integrin (Homo sapiens, UniProt P05556+P13612).
T1 construct: endogenous in cells; host or cells: Ramos cells
T1 sequence (P13612 34-1032): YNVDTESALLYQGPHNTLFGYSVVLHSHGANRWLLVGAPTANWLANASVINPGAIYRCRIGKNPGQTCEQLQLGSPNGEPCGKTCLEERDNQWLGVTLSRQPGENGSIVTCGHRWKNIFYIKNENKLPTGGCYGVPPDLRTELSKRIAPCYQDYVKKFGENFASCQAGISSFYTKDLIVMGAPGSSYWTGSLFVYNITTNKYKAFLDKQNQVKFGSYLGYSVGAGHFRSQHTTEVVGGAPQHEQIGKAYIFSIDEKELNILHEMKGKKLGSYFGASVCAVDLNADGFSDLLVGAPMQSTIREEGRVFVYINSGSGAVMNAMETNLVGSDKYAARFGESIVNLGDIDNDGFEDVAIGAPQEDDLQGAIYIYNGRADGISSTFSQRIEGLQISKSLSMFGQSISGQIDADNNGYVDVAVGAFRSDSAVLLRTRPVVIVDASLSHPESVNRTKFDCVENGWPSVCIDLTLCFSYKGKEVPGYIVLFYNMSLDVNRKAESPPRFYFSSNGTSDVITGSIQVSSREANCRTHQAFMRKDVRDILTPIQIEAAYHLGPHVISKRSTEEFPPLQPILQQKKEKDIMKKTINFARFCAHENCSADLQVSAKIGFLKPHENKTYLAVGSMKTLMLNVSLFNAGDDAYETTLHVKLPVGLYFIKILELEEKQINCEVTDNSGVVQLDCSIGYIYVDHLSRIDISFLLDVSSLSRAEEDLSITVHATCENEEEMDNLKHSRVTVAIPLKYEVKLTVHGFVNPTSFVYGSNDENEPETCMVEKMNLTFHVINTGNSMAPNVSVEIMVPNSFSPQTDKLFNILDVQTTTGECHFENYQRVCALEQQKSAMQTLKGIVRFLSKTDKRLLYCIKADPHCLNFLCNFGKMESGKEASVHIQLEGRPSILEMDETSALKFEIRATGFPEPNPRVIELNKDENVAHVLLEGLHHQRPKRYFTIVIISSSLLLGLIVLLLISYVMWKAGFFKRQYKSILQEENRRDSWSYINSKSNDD
T1 sequence (P05556 21-798): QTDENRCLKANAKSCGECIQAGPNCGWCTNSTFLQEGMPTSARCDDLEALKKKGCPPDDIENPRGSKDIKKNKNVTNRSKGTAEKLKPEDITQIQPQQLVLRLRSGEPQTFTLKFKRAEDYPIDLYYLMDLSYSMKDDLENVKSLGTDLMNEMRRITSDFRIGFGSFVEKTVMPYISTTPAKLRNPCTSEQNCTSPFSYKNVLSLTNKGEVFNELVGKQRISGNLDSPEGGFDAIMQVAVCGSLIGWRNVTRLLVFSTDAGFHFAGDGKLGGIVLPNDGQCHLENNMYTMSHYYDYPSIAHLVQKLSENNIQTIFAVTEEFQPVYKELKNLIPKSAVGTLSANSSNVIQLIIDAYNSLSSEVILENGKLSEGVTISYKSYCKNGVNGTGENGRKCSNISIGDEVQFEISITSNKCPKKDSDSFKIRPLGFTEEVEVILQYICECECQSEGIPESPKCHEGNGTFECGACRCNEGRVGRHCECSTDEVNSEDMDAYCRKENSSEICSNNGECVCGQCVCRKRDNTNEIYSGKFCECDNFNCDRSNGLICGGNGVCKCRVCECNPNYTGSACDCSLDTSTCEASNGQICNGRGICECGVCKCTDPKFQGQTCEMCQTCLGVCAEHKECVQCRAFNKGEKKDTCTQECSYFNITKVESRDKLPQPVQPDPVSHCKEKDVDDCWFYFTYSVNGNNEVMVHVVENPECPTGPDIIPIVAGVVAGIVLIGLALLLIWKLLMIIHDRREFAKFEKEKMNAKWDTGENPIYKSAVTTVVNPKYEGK
Description: Adhesion of calcein-labeled Ramos cells to CS1 (fibronectin) peptide conjugated ovalbumin. The format is cell-based. Conditions: Table 5; Ramos cell adhesion to CS1 conjugated ovalbumin; dose required to give 50% inhibition. Here is the method: A procedure in which a 26-amino acid peptide containing the CS1 sequence of fibronectin with an N-terminal Cys ([…]) was coupled to maleimide activated ovalbumin was used to determine the efficacy of the compounds synthesized. Bovine serum albumin (BSA) and CS1 conjugated ovalbumin were coated onto 96-well polystyrene plates at 0.5 μg/ml in TBS (50 mM TRIS, pH 7.5; 150 mM NaCl) at 4° C. for 16 hours. The plates were washed three times with TBS and blocked with TBS containing 3% BSA at room temperature for 4 hours. Blocked plates were washed three times in binding buffer (TBS; 1 mM MgCl2; 1 mM CaCl2; 1 mM MnCl2) prior to assay. Ramos cells fluorescently labeled with calcein AM were resuspended in binding buffer (10^7 cells/ml) and diluted 1:2 with same buffer with or without compound. 100 μM of compound was added. The cells were added immediately to the wells (2.5×10^5 cells/well) and incubated for 30 minutes at 37° C. Following three washes with binding buffer, adherent cells were lysed and quantitated using a fluorometer. IC50 is defined as the dose required to give 50% inhibition, measured in μM for Tables 2 and 4. The lower the IC50 value and the greater the percentage of inhibition, the more efficient the compound is at prevention of cell adhesion.
For orientation: IC50 means the point on the concentration scale where inhibition reaches its midpoint. With `O=C(O)CC(NC(=O)Nc1c(O)ccn(Cc2ccccc2Cl)c1=O)c1cccnc1` (centres unmarked), the IC50 is 50 nM.
To `Cc1ccc(C(CC(=O)O)NC(=O)Nc2c(O)ccn(Cc3ccccc3Cl)c2=O)o1` (centres unmarked) belongs 25 nM; to `O=C(O)CC(NC(=O)Nc1c(O)ccn(Cc2ccccc2Cl)c1=O)c1ccco1` (centres unmarked), 50 nM.
Consider `Cc1ccc(N(CC(=O)O)NC(=O)Nc2c(O)ccn(Cc3ccccc3Cl)c2=O)cc1`, for which the 50% inhibitory concentration (IC50) was more than 10000 nM.
To `Cc1ccccc1C[C@H](CC(=O)O)NC(=O)Nc1c(O)ccn(Cc2ccccc2Cl)c1=O` belongs 80 nM; to `Cc1ccc(C[C@H](CC(=O)O)NC(=O)Nc2c(O)ccn(Cc3ccccc3Cl)c2=O)cc1`, 150 nM.
To `O=C(O)C[C@@H](Cc1cccc(C(F)(F)F)c1)NC(=O)Nc1c(O)ccn(Cc2ccccc2Cl)c1=O` belongs 350 nM; to `Cc1ccc([C@H](CC(=O)O)NC(=O)Nc2c(O)ccn(Cc3ccccc3S(=O)(=O)N(C)C)c2=O)cc1`, 30 nM.
The value for `Cc1ccc([C@H](CC(=O)O)NC(=O)Nc2c(O)ccn(Cc3ccccc3OC(F)F)c2=O)cc1` was 75 nM.
Regarding `Cc1ccc([C@H](CC(=O)O)NC(=O)Nc2c(O)ccn(Cc3ccccc3Br)c2=O)cc1`, the concentration for half-maximal inhibition (IC50) is 15 nM.
To `Cc1ccc([C@H](CC(=O)O)NC(=O)Nc2c(O)ccn(Cc3cc(F)ccc3Cl)c2=O)cc1` belongs 14 nM; to `COc1cccc(Cl)c1Cn1ccc(O)c(NC(=O)N[C@@H](CC(=O)O)c2ccc(OC(F)(F)F)cc2)c1=O`, 40 nM; to `CCc1ccc([C@H](CC(=O)O)NC(=O)Nc2c(O)ccn(Cc3ccccc3Cl)c2=O)cc1CC`, 50 nM.
The value for `CCCOc1cccc([C@H](CC(=O)O)NC(=O)Nc2c(O)ccn(Cc3ccccc3Cl)c2=O)c1` was 3 nM.
To `COc1c(C)cc([C@H](CC(=O)O)NC(=O)Nc2c(O)ccn(Cc3ccccc3Cl)c2=O)cc1C` belongs 35 nM; to `CCCCOc1ccc([C@H](CC(=O)O)NC(=O)Nc2c(O)ccn(Cc3ccccc3Cl)c2=O)cc1OCCCC`, 25 nM; to `O=C(O)C[C@H](NC(=O)Nc1c(O)ccn(Cc2ccccc2Cl)c1=O)C(c1ccccc1)c1ccccc1`, 12000 nM.
Turning to `O=C(O)C[C@H](NC(=O)Nc1c(O)ccn(Cc2ccccc2Cl)c1=O)c1cccc(OC(F)(F)F)c1`, the half-inhibitory concentration (IC50) was 20 nM.
To `Cc1ccc([C@H](CC(=O)O)N(C)C(=O)Nc2c(O)ccn(Cc3ccccc3Cl)c2=O)cc1` belongs 400 nM; to `O=C(O)C[C@H](NC(=O)Nc1c(O)ccn(Cc2ccccc2Cl)c1=O)c1cc(F)cc(F)c1`, 50 nM.
In the case of `Cc1ccc([C@H](CC(=O)O)NC(=O)Nc2c(O)c3c(n(Cc4ccccc4Cl)c2=O)CCCC3)cc1`, the half-maximal inhibitory concentration (IC50) is 20 nM.
As for `Cc1ccc([C@H](CC(=O)O)NC(=O)Nc2c(O)c3c(n(Cc4ccccc4Cl)c2=O)CCCCC3)cc1`, the IC50 was 120 nM.
The value for `CCCCCc1cn(Cc2ccccc2Cl)c(=O)c(NC(=O)N[C@@H](CC(=O)O)c2ccc(C)cc2)c1O` was 40 nM.
For the compound `CCc1c(O)c(NC(=O)N[C@@H](CC(=O)O)c2ccc(C)cc2)c(=O)n(Cc2ccccc2Cl)c1C`, the IC50 was 25 nM.
To `Cc1ccc([C@H](CC(=O)O)NC(=O)Nc2cccn(Cc3ccccc3O)c2=O)cc1` belongs 200 nM.
The value for `Cc1ccc([C@H](CC(=O)O)NC(=O)Nc2c(O)ccn(Cc3cccc(Cl)c3Cl)c2=O)cc1` was 130 nM; that for `Cc1ccc([C@H](CC(=O)O)NC(=O)Nc2c(O)c(C)cn(Cc3ccc(Cl)cc3Cl)c2=O)cc1` was 20 nM; that for `Cc1ccc([C@H](CC(=O)O)NC(=O)Nc2c(O)ccn(Cc3ccc(F)cc3F)c2=O)cc1` was 30 nM.
The value for `Cc1ccc([C@H](CC(=O)O)NC(=O)Nc2c(O)ccn(Cc3cc(C)ccc3C)c2=O)cc1` was 20 nM; that for `Cc1ccc([C@H](CC(=O)O)NC(=O)Nc2c(O)ccn(Cc3c(Cl)cccc3Cl)c2=O)cc1` was 13 nM.
Take `Cc1ccc([C@H](CC(=O)O)NC(=O)Nc2cccn(Cc3cccc(Cl)c3)c2=O)cc1`: the half-maximal inhibitory concentration (IC50) is 500 nM.
Regarding `Cc1ccc([C@H](CC(=O)O)NC(=O)Nc2c(O)ccn(Cc3cccc(Cl)c3)c2=O)cc1`, the IC50 was 15 nM.
The value for `Cc1ccc([C@H](CC(=O)O)NC(=O)Nc2c(O)ccn(Cc3ccc(Cl)c(Cl)c3)c2=O)cc1` was 45 nM; that for `Cc1ccc([C@H](CC(=O)O)NC(=O)Nc2c(O)ccn(Cc3cc(C)cc(C)c3)c2=O)cc1` was 60 nM.
To `Cc1ccc([C@H](CC(=O)O)NC(=O)Nc2c(O)ccn(Cc3ccc(S(=O)(=O)N(C)C)cc3)c2=O)cc1` belongs 35 nM.
For `COc1cc(Cl)ccc1Cn1ccc(O)c(NC(=O)N[C@@H](CC(=O)O)c2ccc(C)cc2)c1=O`, the half-maximal inhibitory concentration (IC50) is 25 nM.
The value for `CCCc1cn(Cc2ccc(Cl)cc2)c(=O)c(NC(=O)N[C@@H](CC(=O)O)c2ccc(C)cc2)c1O` was 30 nM; that for `Cc1ccc([C@H](CC(=O)O)NC(=O)Nc2c(O)c(C)cn(Cc3ccc(Cl)cc3)c2=O)cc1` was 20 nM.
To `Cc1ccc([C@H](CC(=O)O)NC(=O)Nc2c(O)ccn(Cc3ccc(C(C)(C)C)cc3)c2=O)cc1` belongs 30 nM.
The value for `Cc1ccc([C@H](CC(=O)O)NC(=O)Nc2cc(C(F)(F)F)cn(Cc3ccccc3)c2=O)cc1` was 1500 nM; that for `CSc1ccccc1Cn1ccc(O)c(NC(=O)N[C@@H](CC(=O)O)c2ccc(C)cc2)c1=O` was 20 nM.
With `Cc1ccc([C@H](CC(=O)O)NC(=O)Nc2c(O)ccn(Cc3ccccc3C)c2=O)cc1`, the half-inhibitory concentration (IC50) was 20 nM.
The value for `COc1cccc(Cn2ccc(O)c(NC(=O)N[C@@H](CC(=O)O)c3ccc(C)cc3)c2=O)c1` was 40 nM; that for `Cc1ccc([C@H](CC(=O)O)NC(=O)Nc2c(O)ccn(Cc3cccc(C)c3)c2=O)cc1` was 55 nM; that for `COc1ccc(Cn2ccc(O)c(NC(=O)N[C@@H](CC(=O)O)c3ccc(C)cc3)c2=O)cc1` was 20 nM.
To `Cc1ccc(Cn2ccc(O)c(NC(=O)N[C@@H](CC(=O)O)c3ccc(C)cc3)c2=O)cc1` belongs 25 nM; to `Cc1ccc([C@H](CC(=O)O)NC(=O)Nc2c(O)ccn(Cc3c(C)cc(C)cc3C)c2=O)cc1`, 60 nM.
The value for `Cc1ccc([C@H](CC(=O)O)NC(=O)Nc2c(O)ccn(Cc3ccccc3OC(F)(F)F)c2=O)cc1` was 25 nM.
For `Cc1ccc([C@H](CC(=O)O)NC(=O)Nc2c(O)ccn(Cc3ccccc3C(F)(F)F)c2=O)cc1`, the IC50 is 20 nM.
The value for `Cc1ccc([C@H](CC(=O)O)NC(=O)Nc2c(O)ccn(Cc3cccc(OC(F)(F)F)c3)c2=O)cc1` was 45 nM.
To `Cc1ccc([C@H](CC(=O)O)NC(=O)Nc2c(O)ccn(Cc3cccc(C(F)(F)F)c3)c2=O)cc1` belongs 17 nM; to `Cc1ccc([C@H](CC(=O)O)NC(=O)Nc2c(O)ccn(Cc3ccc(OC(F)(F)F)cc3)c2=O)cc1`, 25 nM.
Turning to `Cc1ccc([C@H](CC(=O)O)NC(=O)Nc2c(O)ccn(Cc3ccc(C(F)(F)F)cc3)c2=O)cc1`, the concentration for half-maximal inhibition (IC50) is 20 nM.
On to `Cc1ccc([C@H](CC(=O)O)NC(=O)Nc2c(O)c(C)cn(Cc3ccc(S(C)(=O)=O)cc3)c2=O)cc1`, for which the IC50 is 20 nM.
To `Cc1ccc([C@H](CC(=O)O)NC(=O)Nc2c(O)c(C)cn([C@H](C)c3ccccc3)c2=O)cc1` belongs 4000 nM; to `CCCCc1cn(Cc2ccccc2Cl)c(=O)c(NC(=O)N[C@@H](CC(=O)O)c2ccc(C)cc2)c1O`, 25 nM.
